Source: ChEMBL document CHEMBL5126556, “Recent advances in natural anti-obesity compounds and derivatives based on in vivo evidence: A mini-review” (Eur J Med Chem, 2022)

How the values were obtained:
Mus musculus [1] = assay: Anti-obesity activity in female C57BL/6 mouse model of high-fat diet induced obesity assessed as body weight change at 40 mg/kg, po administered once daily for 16 weeks relative to control; format: functional
Mus musculus [2] = assay: Anti-obesity activity in ovariectomized C57BL/6 mouse assessed as body weight change at 40 mg/kg, po administered once daily for 16 weeks relative to control; format: functional
Mus musculus [3] = assay: Anti-obesity activity in male C57BL/6 mouse model of high-fat diet induced obesity assessed as body weight change at 20 mg/kg, ip administered twice a week for 12 weeks relative to control; format: functional
Mus musculus [4] = assay: Anti-obesity activity in female C57BL/6 mouse model of high-fat diet induced obesity assessed as body weight change at 0.005 % (w/v) administered orally for 16 weeks relative to control; format: functional; settings: route po
Mus musculus [5] = assay: Anti-obesity activity in Swiss male mouse model of high-fat diet induced obesity assessed as body weight change at 10 mg/kg, po administered for 15 weeks relative to control; format: functional
Mus musculus [6] = assay: Anti-obesity activity in male C57BL/6 mouse model of high-fat diet induced obesity assessed as body weight change at 20 mg/kg, po administered once a day for 8 weeks relative to control; format: functional
Mus musculus [7] = assay: Anti-obesity activity in male C57BL/6 mouse model of high-fat diet induced obesity assessed as body weight change at 50 mg/kg, po administered once a day for 8 weeks relative to control; format: functional
[8] = Toxicity in po dosed mouse assessed as lethal dose; format: organism-based; settings: in vivo
Mus musculus [9] = assay: Anti-obesity activity in male C57BL/6 mouse model of high-fat diet induced obesity assessed as body weight change at 3 mg/kg, po administered once a day for 8 weeks relative to control; format: functional
Mus musculus [10] = assay: Anti-obesity activity in male C57BL/6 mouse model of high-fat diet induced obesity assessed as body weight change at 0.1 mg/kg, ip administered once a day for 3 weeks relative to control; format: functional
Mus musculus [11] = assay: Anti-obesity activity in male C57BL/6 mouse model of high-fat diet induced obesity assessed as body weight change at 10 mg/kg, po administered once a day for 3 weeks relative to control; format: functional
Mus musculus [12] = assay: Anti-obesity activity in male C57BL/6 mouse model of high-fat diet induced obesity assessed as body weight change at 5 mg/kg, po administered thrice a week for 8 weeks relative to control; format: functional
Mus musculus [13] = assay: Anti-obesity activity in male C57BL/6 mouse model of high-fat diet induced obesity assessed as body weight change at 30 mg/kg, po administered once a day for 8 weeks relative to control; format: functional
Mus musculus [14] = assay: Anti-obesity activity in male C57BL/6 mouse model of high-fat diet induced obesity assessed as body weight change at 50 mg/kg, po administered once a day for 9 weeks relative to control; format: functional
[15] = Inhibition of V-ATPase in bovine chromaffin granules incubated for 1 hrs by absorbance based assay; format: subcellular, Bos taurus, Chromaffin granule
Mus musculus [16] = assay: Anti-obesity activity in male C57BL/6 mouse model of high-fat diet induced obesity assessed as body weight change at 100 mg/kg, po administered once a day for 9 weeks relative to control; format: functional
Mus musculus [17] = assay: Anti-obesity activity in male C57BL/6 mouse model of high-fat diet induced obesity assessed as body weight change at 150 mg/kg, po administered once a day for 4 weeks relative to control; format: functional
Mus musculus [18] = assay: Anti-obesity activity in high-fat diet induced C57BL/6J obese mouse model assessed as body weight change at 150 mg/kg, po administered once daily for 4 weeks relative to control; format: functional
Mus musculus [19] = assay: Anti-obesity activity in male C57BL/6 mouse model of high-fat diet induced obesity assessed as body weight change at 0.002 mg/kg, ip administered once a day for 8 weeks relative to control; format: functional
Mus musculus [20] = assay: Anti-obesity activity in male C57BL/6 mouse model of high-fat diet induced obesity assessed as body weight change at 1.25 mg/kg, ip administered once a day for 21 days relative to control; format: functional; settings: time 21 day

COc1cc(O)c2c(=O)oc(-c3ccccc3)cc2c1CC=C(C)C
Activity (Mus musculus [1]): 28.6%
Activity (Mus musculus [2]): 17.9%

CC1(C)CC[C@]2(C(=O)O)CC[C@]3(C)C(=CC[C@@H]4[C@@]5(C)C[C@@H](O)[C@H](O)C(C)(C)[C@@H]5CC[C@]43C)[C@@H]2C1 [MASLINIC ACID]
Activity (Mus musculus [3]): 18.2%

CC1(C)CC[C@]2(C(=O)O)CC[C@]3(C)C(=CC[C@@H]4[C@@]5(C)CC[C@H](O)C(C)(C)[C@@H]5CC[C@]43C)[C@@H]2C1 [OLEANOLIC_ACID]
Activity (Mus musculus [4]): 45%
Activity (Mus musculus [5]): 71.9%

C=C1C(=O)O[C@@H]2C[C@@]3(C)CCCC(=C)[C@@H]3C[C@H]12 [ISOALANTOLACTONE]
Activity (Mus musculus [6]): 44.1%

COc1ccc(-c2coc3cc(O)ccc3c2=O)cc1 [FORMONONETIN]
Activity (Mus musculus [7]): 18.8%

CC1=C(O)C(=O)C=C2C1=CC=C1[C@@]2(C)CC[C@@]2(C)[C@@H]3C[C@](C)(C(=O)O)CC[C@]3(C)CC[C@]12C [CELASTROL]
LD50 [8]: 20.5 mg/kg
Activity (Mus musculus [9]): 1.8%
Activity (Mus musculus [10]): -27.7%
Activity (Mus musculus [11]): -45.4%

Cc1coc2c1C(=O)C(=O)c1c-2ccc2c(C)cccc12 [TANSHINONE I]
Activity (Mus musculus [12]): 30.6%

CC1(C)[C@@H](O)CC[C@]2(C)[C@H]3C(=O)C=C4[C@@H]5C[C@@](C)(C(=O)O)CC[C@]5(C)CC[C@@]4(C)[C@]3(C)CC[C@@H]12 [ENOXOLONE]
Activity (Mus musculus [13]): 30.2%

CC1(C)C=Cc2cc(-c3coc4cc(O)ccc4c3=O)ccc2O1 [ISOWIGHTEONE]
Activity (Mus musculus [14]): 8.3%

COc1cc2c(O)c3c(c(-c4ccc5c(c4)OCO5)c2cc1OC)C(=O)OC3 [DIPHYLLIN]
IC50 [15]: 17 nM
Activity (Mus musculus [16]): 13.7%

CC1(C)C=Cc2c(ccc3c2OC[C@@H](c2ccc(O)cc2O)C3)O1 [GLABRIDIN]
Activity (Mus musculus [17]): -16.7%
Activity (Mus musculus [18]): -13.2%

CC1=C(CO)C(=O)O[C@@H]([C@@H](C)[C@H]2CC[C@H]3[C@@H]4C[C@H]5O[C@]56[C@@H](O)C=CC(=O)[C@]6(C)[C@H]4CC[C@]23C)C1 [WITHAFERIN A]
Activity (Mus musculus [19]): 30.5%
Activity (Mus musculus [20]): 0%
